Experimental data reported in patent US6737383B1, “Herbicidal oxadiazolidines” (priority 1999, dated 2004).

Experiments:
wheat = test: Test B pre/postemergence wheat; assay type: in vivo, Triticum aestivum
How it was run: (§1)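 Herbicidal effect was estimated by eye on a ten-point control scale after plants spent twelve to sixteen days in a greenhouse following soil or foliar treatment. Foliar sprays targeted plants at one to four leaves; all doses were formulated in a non-phytotoxic solvent with surfactant.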

sugar beet = test: Test B pre/postemergence sugar beet; assay type: in vivo, Beta vulgaris
How it was run: as §1

corn = test: Test B pre/postemergence corn; assay type: in vivo, Zea mays
How it was run: as §1

blackgrass = test: Test B pre/postemergence blackgrass; assay type: in vivo, Alopecurus myosuroides
How it was run: as §1

morningglory = test: Test B pre/postemergence morningglory; assay type: in vivo, Ipomoea hederacea
How it was run: as §1

wild oat = test: Test B pre/postemergence wild oat; assay type: in vivo, Avena fatua
How it was run: as §1

crabgrass = test: Test B pre/postemergence crabgrass; assay type: in vivo, Digitaria sanguinalis
How it was run: as §1

purple nutsedge = test: Test B pre/postemergence purple nutsedge; assay type: in vivo, Cyperus rotundus
How it was run: as §1

surinam grass = test: Test B pre/postemergence surinam grass; assay type: in vivo, Brachiaria decumbens
How it was run: as §1

giant foxtail = test: Test B pre/postemergence giant foxtail; assay type: in vivo, Setaria faberii
How it was run: as §1

cocklebur = test: Test B pre/postemergence cocklebur; assay type: in vivo, Xanthium strumarium
How it was run: as §1

velvetleaf = test: Test B pre/postemergence velvetleaf; assay type: in vivo, Abutilon theophrasti
How it was run: as §1

rape = test: Test B pre/postemergence rape; assay type: in vivo, Brassica napus
How it was run: as §1

bedstraw = test: Test B pre/postemergence bedstraw; assay type: in vivo, Galium aparine
How it was run: as §1

pigweed = test: Test B pre/postemergence pigweed; assay type: in vivo, Amaranthus retroflexus
How it was run: as §1

soybean = test: Test B pre/postemergence soybean; assay type: in vivo, Glycine max
How it was run: as §1

[1] = Postemergence, Rate 62 g/ha, scale 0 to 10, 0 is no effect, 10 is complete control
[2] = Postemergence, Rate 125 g/ha, scale of 0 to 10 where 0 is no effect and 10 is complete control
[3] = Preemergence, Rate 62 g/ha, scale of 0 to 10 where 0 is no effect and 10 is complete control
[4] = Preemergence, Rate 125 g/ha, scale of 0 to 10 where 0 is no effect and 10 is complete control
[5] = Preemergence, Rate 250 g/ha, scale 0 to 10 (0 no effect, 10 complete control)
[6] = Preemergence, Rate 500 g/ha, scale of 0 to 10 where 0 is no effect and 10 is complete control
[7] = Rate 500 g/ha, Postemergence, scale 0 to 10, 0 is no effect, 10 is complete control
[8] = Postemergence, Rate 250 g/ha, scale of 0 to 10, 0 is no effect, 10 is complete control

CC(C)N(C(=O)n1oc(=O)n(Cc2nnc(Cl)s2)c1=O)c1ccccc1 [Compound 654]
7: Plant response rating, Blackgrass (blackgrass; [6]) | Plant response rating, Crabgrass (crabgrass; [5]) | Crabgrass plant response rating (crabgrass; [7]) | Plant response rating, B. signalgrass (surinam grass; [6]) | Giant foxtail plant response rating (giant foxtail; [7])
5: Giant foxtail plant response rating (giant foxtail; [8]) | Plant response rating, Redroot pigweed (pigweed; [6])
3: Plant response rating, Morningglory (morningglory; [1]) | Crabgrass plant response rating (crabgrass; [4]) | Plant response rating, Redroot pigweed (pigweed; [5])
9: Plant response rating, Crabgrass (crabgrass; [6]) | Plant response rating, Giant foxtail (giant foxtail; [5]) | Plant response rating, Giant foxtail (giant foxtail; [6])
6: Giant foxtail plant response rating (giant foxtail; [4])
10: Morningglory plant response rating (morningglory; [8]) | Morningglory plant response rating (morningglory; [7])
4: Morningglory plant response rating (morningglory; [2])
2: Plant response rating, Blackgrass (blackgrass; [5]) | Plant response rating, Wild oats (wild oat; [6]) | Crabgrass plant response rating (crabgrass; [8]) | Giant foxtail plant response rating (giant foxtail; [2])
0: Plant response rating, Wheat (wheat; [1]) | Wheat plant response rating (wheat; [2]) | Wheat plant response rating (wheat; [3]) | Wheat plant response rating (wheat; [4]) | Plant response rating, Wheat (wheat; [5]) | Plant response rating, Wheat (wheat; [6]) | Wheat plant response rating (wheat; [7]) | Plant response rating, Sugarbeets (sugar beet; [1]) | Sugarbeets plant response rating (sugar beet; [2]) | Sugarbeets plant response rating (sugar beet; [3]) | Sugarbeets plant response rating (sugar beet; [4]) | Plant response rating, Sugarbeets (sugar beet; [5]) | Plant response rating, Sugarbeets (sugar beet; [6]) | Sugarbeets plant response rating (sugar beet; [7]) | Plant response rating, Corn (corn; [1]) | Corn plant response rating (corn; [2]) | Corn plant response rating (corn; [8]) | Corn plant response rating (corn; [3]) | Corn plant response rating (corn; [4]) | Plant response rating, Corn (corn; [5]) | Plant response rating, Corn (corn; [6]) | Corn plant response rating (corn; [7]) | Plant response rating, Blackgrass (blackgrass; [1]) | Blackgrass plant response rating (blackgrass; [2]) | Blackgrass plant response rating (blackgrass; [8]) | Blackgrass plant response rating (blackgrass; [3]) | Blackgrass plant response rating (blackgrass; [4]) | Blackgrass plant response rating (blackgrass; [7]) | Morningglory plant response rating (morningglory; [3]) | Morningglory plant response rating (morningglory; [4]) | Plant response rating, Morningglory (morningglory; [5]) | Plant response rating, Morningglory (morningglory; [6]) | Plant response rating, Wild oats (wild oat; [1]) | Wild oats plant response rating (wild oat; [2]) | Wild oats plant response rating (wild oat; [3]) | Wild oats plant response rating (wild oat; [4]) | Plant response rating, Wild oats (wild oat; [5]) | Wild oats plant response rating (wild oat; [7]) | Plant response rating, Crabgrass (crabgrass; [1]) | Crabgrass plant response rating (crabgrass; [2]) | Crabgrass plant response rating (crabgrass; [3]) | Plant response rating, Nutsedge (purple nutsedge; [1]) | Nutsedge plant response rating (purple nutsedge; [2]) | Nutsedge plant response rating (purple nutsedge; [3]) | Plant response rating, Nutsedge (purple nutsedge; [5]) | Plant response rating, Nutsedge (purple nutsedge; [6]) | Plant response rating, B. signalgrass (surinam grass; [1]) | Plant response rating, B. signalgrass (surinam grass; [2]) | B. signalgrass plant response rating (surinam grass; [8]) | B. signalgrass plant response rating (surinam grass; [3]) | B. signalgrass plant response rating (surinam grass; [4]) | Plant response rating, B. signalgrass (surinam grass; [5]) | B. signalgrass plant response rating (surinam grass; [7]) | Plant response rating, Giant foxtail (giant foxtail; [1]) | Giant foxtail plant response rating (giant foxtail; [3]) | Plant response rating, Cocklebur (cocklebur; [1]) | Cocklebur plant response rating (cocklebur; [2]) | Cocklebur plant response rating (cocklebur; [8]) | Cocklebur plant response rating (cocklebur; [3]) | Cocklebur plant response rating (cocklebur; [4]) | Plant response rating, Cocklebur (cocklebur; [5]) | Plant response rating, Cocklebur (cocklebur; [6]) | Cocklebur plant response rating (cocklebur; [7]) | Plant response rating, Velvetleaf (velvetleaf; [1]) | Velvetleaf plant response rating (velvetleaf; [2]) | Velvetleaf plant response rating (velvetleaf; [3]) | Velvetleaf plant response rating (velvetleaf; [4]) | Plant response rating, Velvetleaf (velvetleaf; [5]) | Plant response rating, Velvetleaf (velvetleaf; [6]) | Velvetleaf plant response rating (velvetleaf; [7]) | Plant response rating, Rape (rape; [1]) | Rape plant response rating (rape; [2]) | Rape plant response rating (rape; [3]) | Rape plant response rating (rape; [4]) | Plant response rating, Rape (rape; [5]) | Plant response rating, Rape (rape; [6]) | Rape plant response rating (rape; [7]) | Bedstraw plant response rating (bedstraw; [8]) | Bedstraw plant response rating (bedstraw; [3]) | Bedstraw plant response rating (bedstraw; [4]) | Plant response rating, Bedstraw (bedstraw; [5]) | Plant response rating, Bedstraw (bedstraw; [6]) | Bedstraw plant response rating (bedstraw; [7]) | Plant response rating, Redroot pigweed (pigweed; [1]) | Redroot pigweed plant response rating (pigweed; [2]) | Redroot pigweed plant response rating (pigweed; [3]) | Redroot pigweed plant response rating (pigweed; [4]) | Redroot pigweed plant response rating (pigweed; [7]) | Plant response rating, Soybean (soybean; [1]) | Soybean plant response rating (soybean; [2]) | Soybean plant response rating (soybean; [3]) | Soybean plant response rating (soybean; [4]) | Plant response rating, Soybean (soybean; [5]) | Plant response rating, Soybean (soybean; [6]) | Soybean plant response rating (soybean; [7])

CC(C)N(C(=O)n1oc(=O)n(CCF)c1=O)c1ccccc1 [Compound 669]
4: Rape plant response rating (rape; [4])
6: Wheat plant response rating (wheat; [3]) | Sugarbeets plant response rating (sugar beet; [3]) | Plant response rating, Nutsedge (purple nutsedge; [6]) | Redroot pigweed plant response rating (pigweed; [3]) | Plant response rating, Soybean (soybean; [6])
9: Plant response rating, Sugarbeets (sugar beet; [6]) | Corn plant response rating (corn; [4]) | Plant response rating, Corn (corn; [5]) | Plant response rating, Corn (corn; [6]) | Blackgrass plant response rating (blackgrass; [3]) | Crabgrass plant response rating (crabgrass; [3]) | Crabgrass plant response rating (crabgrass; [4]) | Plant response rating, Crabgrass (crabgrass; [5]) | Giant foxtail plant response rating (giant foxtail; [3]) | Giant foxtail plant response rating (giant foxtail; [4]) | Plant response rating, Rape (rape; [6]) | Plant response rating, Bedstraw (bedstraw; [5]) | Plant response rating, Bedstraw (bedstraw; [6])
2: Corn plant response rating (corn; [3]) | Rape plant response rating (rape; [3]) | Soybean plant response rating (soybean; [4])
3: Plant response rating, Soybean (soybean; [5])
7: Bedstraw plant response rating (bedstraw; [4])
0: Morningglory plant response rating (morningglory; [3]) | Morningglory plant response rating (morningglory; [4]) | Plant response rating, Morningglory (morningglory; [5]) | Plant response rating, Morningglory (morningglory; [6]) | Nutsedge plant response rating (purple nutsedge; [3]) | Cocklebur plant response rating (cocklebur; [3]) | Cocklebur plant response rating (cocklebur; [4]) | Plant response rating, Cocklebur (cocklebur; [5]) | Plant response rating, Cocklebur (cocklebur; [6]) | Velvetleaf plant response rating (velvetleaf; [3]) | Velvetleaf plant response rating (velvetleaf; [4]) | Plant response rating, Velvetleaf (velvetleaf; [5]) | Plant response rating, Velvetleaf (velvetleaf; [6]) | Bedstraw plant response rating (bedstraw; [3]) | Soybean plant response rating (soybean; [3])
10: Blackgrass plant response rating (blackgrass; [4]) | Plant response rating, Blackgrass (blackgrass; [5]) | Plant response rating, Blackgrass (blackgrass; [6]) | Wild oats plant response rating (wild oat; [3]) | Wild oats plant response rating (wild oat; [4]) | Plant response rating, Wild oats (wild oat; [5]) | Plant response rating, Wild oats (wild oat; [6]) | Plant response rating, Crabgrass (crabgrass; [6]) | Plant response rating, B. signalgrass (surinam grass; [5]) | Plant response rating, B. signalgrass (surinam grass; [6]) | Plant response rating, Giant foxtail (giant foxtail; [5]) | Plant response rating, Giant foxtail (giant foxtail; [6]) | Redroot pigweed plant response rating (pigweed; [4]) | Plant response rating, Redroot pigweed (pigweed; [5]) | Plant response rating, Redroot pigweed (pigweed; [6])
8: Plant response rating, Wheat (wheat; [5]) | Plant response rating, Wheat (wheat; [6]) | Sugarbeets plant response rating (sugar beet; [4]) | Plant response rating, Sugarbeets (sugar beet; [5]) | B. signalgrass plant response rating (surinam grass; [3]) | B. signalgrass plant response rating (surinam grass; [4]) | Plant response rating, Rape (rape; [5])
5: Wheat plant response rating (wheat; [4])
